In PMC10689823, “Discovery of a Drug-like, Natural Product-Inspired DCAF11 Ligand Chemotype” (Nature Communications, 2023):
Where “and” joins values, the source holds several entries; their conditions need not be identical. Equal entries are not always repeated.

Assays:
Format in all cases: cell-based
[1] = test system: BRD2; assay: In-Cell Western for BRD2 levels in Hep G2 cells
How it was run: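 Hep G2 cells were treated with compound for the indicated time and concentration. After fixation and permeabilisation, BRD2 was immunostained and read by near-infrared imaging. BRD2 signal was normalised to vinculin.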

[2] = biological target: T1, BRD3 (Homo sapiens, UniProt Q15059); assay: BRD3 levels by Western blot in Jurkat cells; conditions: for degradation of BRD3: 3 µM, 6 h treatment
T1 construct: endogenous in cells; host or cells: Jurkat
T1 sequence (Q15059 whole entry): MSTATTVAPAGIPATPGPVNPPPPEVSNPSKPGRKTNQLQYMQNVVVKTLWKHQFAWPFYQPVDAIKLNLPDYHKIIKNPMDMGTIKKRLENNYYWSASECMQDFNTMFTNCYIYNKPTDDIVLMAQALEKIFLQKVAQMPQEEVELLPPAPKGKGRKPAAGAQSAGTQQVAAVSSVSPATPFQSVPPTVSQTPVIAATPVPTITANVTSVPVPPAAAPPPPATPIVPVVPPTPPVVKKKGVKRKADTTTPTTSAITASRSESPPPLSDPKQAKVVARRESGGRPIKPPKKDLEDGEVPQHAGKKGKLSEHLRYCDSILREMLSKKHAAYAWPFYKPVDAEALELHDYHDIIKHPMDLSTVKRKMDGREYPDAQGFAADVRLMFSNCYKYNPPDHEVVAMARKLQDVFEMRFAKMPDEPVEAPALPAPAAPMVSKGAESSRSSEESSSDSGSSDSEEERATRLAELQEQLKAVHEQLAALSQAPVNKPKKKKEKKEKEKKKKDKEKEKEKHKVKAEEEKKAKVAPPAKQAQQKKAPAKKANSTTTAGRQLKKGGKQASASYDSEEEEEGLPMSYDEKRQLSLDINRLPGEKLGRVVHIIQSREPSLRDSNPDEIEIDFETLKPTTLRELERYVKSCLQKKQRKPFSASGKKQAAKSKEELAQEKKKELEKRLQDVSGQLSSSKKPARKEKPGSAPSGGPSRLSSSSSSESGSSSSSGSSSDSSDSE
Procedure: (§1) Cells were washed with PBS and lysed in lysis buffer (50 mM Tris-HCl, pH 7.4, 150 mM NaCl, 1% Triton X-100, 1% sodium deoxycholate, 0.1% SDS) with complete protease inhibitor cocktail (Roche, 11836170001) for 30 min on ice. For Ramos cells, cell pellets were lysed in lysis buffer (50 mM Tris-HCl, pH 8, 150 mM NaCl, 1% NP-40, 0.5% sodium deoxycholate) with complete protease inhibitor cocktail. After centrifugation at 16,000 x g, the supernatant was transferred into a new tube and the protein concentration was determined by DC protein assay (BIO-RAD, 5000116). Proteins were separated by SDS-PAGE and transferred to a PVDF membrane (Thermo scientific, 0.45 μm, 88518). For PDEδ, BRD2, GAPDH, BRD4, Vinculin and BTK, the membranes were blocked with Intercept® Blocking Buffer (LI-COR Biosciences, 927-70001) at room temperature for 1 h. The primary antibodies for these proteins were diluted with Intercept® Blocking Buffer (1:500 for PDEδ, 1:3000 for Vinculin, and 1:1000 for other proteins) and incubated with the membranes overnight at 4 °C. Membranes were washed with PBS + 0.1% Tween 20 (PBS-T) five times and incubated with secondary antibodies conjugated to IRDye® Infrared Fluorescent Dyes (1:5000, LI-COR Biosciences) at room temperature for 1 h with protection from light. After washing the membrane, signals were visualized using the ChemiDoc MP Imaging System (BIO-RAD Laboratories). For detection of LC3B, BRD3, BLK, DCAF11, DDB1 RBX1, FIP200, V5- and FLAG-Tag the membranes were blocked with 5% milk in PBS-T at room temperature for 1 h. The primary antibodies for these proteins were diluted in 5% milk in PBS-T buffer (1:200 for BRD3, 1:1000 for other proteins) and incubated with the membranes overnight at 4 °C. Membranes were washed with PBS-T five times and incubated with HRP secondary antibodies (1:1500) at room temperature for 1 h. After washing the membrane, protein detection was performed using Western blotting detection reagent (Thermo Scientific, 34095) and the ChemiDoc MP Imaging System (BIO-RAD). Relative band intensities were quantified using Image Lab (BIO-RAD).

[3] = biological target: T2, BRD4 (Homo sapiens, UniProt O60885); assay: BRD4 levels by Western blot in Jurkat cells; conditions: for degradation of BRD4: 3 µM, 6 h treatment
T2 construct: endogenous in cells; host or cells: Jurkat
Procedure: as §1

[4] = biological target: T3, BRD4(S)-BFP (Homo sapiens, UniProt O60885); assay: Flow cytometry-based BRD4 reporter assay (DCAF11 knockout/rescue); conditions: 6 h, 10 at 5 µM, 9 at 1 µM, dBET6 at 0.5 µM, DMSO = 1
T3 construct: BRD4 short isoform (amino acids 1-719; Twist Bioscience); V5; P2A-mCherry (mCherry split off by P2A self-cleavage) (C, cleaved yes); expressed in transfected cells; host or cells: KBM7 iCas9 cells, lentiviral SFFV-BRD4(S)-mTagBFP-P2A-mCherry
Procedure: Stable BRD4(S)-BFP reporter KBM7 iCas9 cell line was generated as previously described. […] Cells were subsequently washed, resuspended in FACS buffer and analyzed on LSRFortessa (BD Biosciences). Flow cytometry data was analyzed in FlowJo (v10.8.1). BFP and mCherry mean fluorescence intensity (MFI) values for were normalized by background subtraction of the respective values from reporter negative KBM7 wild type cells.

[5] = test system: caspase-3/7 activity; assay: Caspase-3/7 Activity Assay in Jurkat cells; conditions: 18 h
Procedure: Jurkat cells (3 × 10^3) were seeded in 96-well plates in 25 μl culture medium. Cells were treated with compounds dissolved in 25 μl medium at the indicated concentration for 18 h. After adding 50 μl of Caspase-Glo® 3/7 Reagent (Promega, G8091) to each well for 30 min at room temperature, the luminescence was measured on a Spark® Multimode Microplate Reader (Tecan). The data was analyzed by the GraphPad Prism 9.0.

[6] = biological target: BRD2 (Homo sapiens, UniProt P25440); assay: BRD2 levels by Western blot in KBM7 cells (WT, DCAF11 knockout, DDB1 knockout); set-up: endogenous in cells; host or cells: KBM7 (WT, DCAF11 KO, DDB1 KO); conditions: for BRD2 degradation after knockout of DDB1 in KBM7 cells: 0.5 µg/mL Dox for 3 days, then compound 4 h; for BRD2 degradation in DCAF11 knockout (KO1 and KO2) KBM7 cells: 9 at 3 μM, 10 at 10 μM, 11 at 10 μM, 6 h; for BRD2 degradation in KBM7 cells: 4 h
Sequence of BRD2 (Homo sapiens, UniProt P25440) (P25440 whole entry): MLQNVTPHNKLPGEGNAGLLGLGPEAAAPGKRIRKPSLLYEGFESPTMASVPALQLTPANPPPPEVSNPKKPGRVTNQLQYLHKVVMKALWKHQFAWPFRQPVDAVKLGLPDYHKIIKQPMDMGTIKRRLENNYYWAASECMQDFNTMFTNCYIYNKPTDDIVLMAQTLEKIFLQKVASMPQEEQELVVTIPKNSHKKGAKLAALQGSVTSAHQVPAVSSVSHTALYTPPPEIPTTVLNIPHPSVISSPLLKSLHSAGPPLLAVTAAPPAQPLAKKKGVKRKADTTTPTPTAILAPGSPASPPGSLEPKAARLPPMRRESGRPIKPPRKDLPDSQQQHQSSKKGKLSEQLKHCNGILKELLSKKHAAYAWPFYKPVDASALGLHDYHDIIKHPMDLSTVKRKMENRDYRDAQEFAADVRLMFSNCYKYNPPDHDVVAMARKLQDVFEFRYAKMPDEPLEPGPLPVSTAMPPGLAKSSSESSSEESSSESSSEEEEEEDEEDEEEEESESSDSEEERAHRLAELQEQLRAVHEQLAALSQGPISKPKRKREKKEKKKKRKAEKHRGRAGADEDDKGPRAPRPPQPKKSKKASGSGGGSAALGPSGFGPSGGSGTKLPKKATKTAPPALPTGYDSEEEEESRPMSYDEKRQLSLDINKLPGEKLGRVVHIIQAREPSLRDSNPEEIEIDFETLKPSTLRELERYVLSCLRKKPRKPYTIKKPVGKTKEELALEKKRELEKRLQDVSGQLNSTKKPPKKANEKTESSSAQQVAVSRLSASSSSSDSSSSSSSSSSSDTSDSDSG
Procedure: as §1
DCAF11- or FIP200 (RB1CC1)-targeting sgRNAs were lentivirally packaged using PEI transfection of Lenti-X cells. The viral supernatant was harvested after 72 h, cleared of cellular debris by filtration through a 0.45-µm PES filter and stored in aliquots at −80 °C. The appropriate amount of viral supernatant was transduced into KBM7 cells (1 × 10^6 cells/mL) via spinfection (2000 rpm, 1 h, 37 °C) with polybrene (8 µg/mL). Two days post transduction, the cells were selected with puromycin (1 µg/mL) for a total of 5 days, after which the knockout pools were validated via western blotting.

[7] = KBM7 iCas9 BRD4(S)-BFP reporter cells, WT
[8] = reporter cells, DCAF11 KO + WT cDNA

SMILES | BRD2/Vinculin intensity (relative to control group) ([1]; Hep G2 cells, pretreated with compound at 30 μM 1 h, then 9 (10 μM, 4 h), single repeats, Fig. 4h) | Value (Mean ± SD): Relative BRD2 levels remaining in Hep G2 cells after treatment with compounds followed by treatment with 9, with DMSO control for normalization ([1]; qualitative ICW assay, pretreated at 30 μM 1 h, then 9 (10 μM, 4 h), Supplementary Table 1) | degradation of BRD3 [2] | hook effect for BRD3 ([2]; 6 h, at 10 µM) | degradation of BRD4 [3] | hook effect for BRD4 ([3]; 6 h, up to 50 µM concentration) | norm BRD4 abundance [4, 7] | norm BRD4 abundance [4, 8] | norm BRD4 abundance ([4]; reporter cells, DCAF11 KO) | BRD2 depletion by In-Cell Western ([1]; Hep G2 cells, 4 h) | caspase-3/7 activation compared with JQ1 or non-active degraders 16 and 17 [5] | BRD2 degradation after knockout of DDB1 in KBM7 cells [6] | BRD2 degradation in DCAF11 knockout (KO1 and KO2) KBM7 cells [6] | BRD2 degradation in KBM7 cells [6]
O=C1Nc2ccc(Br)cc2C1=Cc1cc(Br)c(O)c(Br)c1 [Compound 2] | 45.5673 and 52.7494 and 40.9253 and 42.2632 and 42.726 | 44.85 ± 4.23 |  |  |  |  |  |  |  |  |  |  |  | 
Cc1sc2c(c1C)C(c1ccc(Cl)cc1)=N[C@@H](CC(=O)NCCOCCOCCOCCOCCNC(=O)COc1c(Br)cc(/C=C3\C(=O)Nc4ccc(Br)cc43)cc1Br)c1nnc(C)n1-2 [Compound 9] |  |  | potent degradation activity | strong hook effect | potent degradation activity | almost no hook effect | 0.4125 | 0.4289 | 0.7503 | dose-dependent depletion of BRD2 | substantially higher | did not lead to BRD2 degradation anymore | abolished | displayed BRD2-degrading activity
Cc1sc2c(c1C)C(c1ccc(Cl)cc1)=NC(CC(=O)NCCOCCOCCOCCOc1c(Br)cc(C=C3C(=O)Nc4ccc(Br)cc43)cc1Br)c1nnc(C)n1-2 (centres unmarked) [Compound 10] |  |  | potent degradation activity |  | potent degradation activity |  | 0.5147 | 0.5732 | 0.8082 |  | substantially higher | did not lead to BRD2 degradation anymore | abolished | displayed BRD2-degrading activity
